According to US20170290774A1, “NEUROKININ-1 RECEPTOR ANTAGONIST COMPOSITION FOR TREATMENT OF DISEASES AND CONDITIONS OF THE RESPIRATORY TRACT” (PLUS VITECH, S.L., priority 2014, published 2017):

Test: Tissue concentration of aprepitant by HPLC after oral or inhaled administration to rabbits
Assay type: in vivo, New Zealand albino rabbits
Details: rabbit
Experimental: Herein, New Zealand albino rabbits (New Zealand White Rabbits) with an initial average weight of approximately 3 kg were used. The rabbits were fed ad libitum and were monitored daily to check that signs of toxicity had not appeared. […] This mixture was administered as an aerosol to the airways of a group of 3 of said rabbits (Group 5) in a dose of 0.05 mg/kg body weight per day, to another group of three rabbits (Group 6) in a dose of 0.1 mg/kg body weight per day, to another group of three rabbits (group 7) in a dose of 0.2 mg/kg body weight per day and to another group of three rabbits (Group 8) in a dose of 0.4 mg/kg body weight per day. […] After seven days of treatment all animals were euthanized and necropsied. […] Samples were taken at the peripheral level of the lung parenchyma, just below the pleural surface. Tissue samples were also taken from the nasal cavity, pharynx, larynx and bronchi. […] The average is the arithmetic average calculated for each row or column of each table. The SD is the standard deviation, calculated for each row or column of each table.

Compound `C[C@@H](OC1OCCN(Cc2nc(=O)[nH][nH]2)C1c1ccc(F)cc1)c1cc(C(F)(F)F)cc(C(F)(F)F)c1` (stereo in doubt) [Aprepitant, 5-([(2R,3S)-2-((R)-1-[3,5-bis(trifluoromethyl)phenyl]ethoxy)-3-(4-fluorophenyl)morpholino]methyl)-1H-1,2,4-triazol-3(2H)-one] has a concentration at 7 days (New Zealand White (albino), lung, right inferior lobe, po, 100 mg/kg/day, Lung concentration of aprepitant LIPD (right inferior lobe), Group 4, oral 100 mg/kg per day, seven days, individual cases) of 4900 ng/g, a concentration at 7 days (New Zealand White (albino), lung, right inferior lobe, po, 100 mg/kg/day, Lung concentration of aprepitant LIPD, Average ± SD of cases, Group 4, oral 100 mg/kg per day, seven days) of 5600 ng/g and a concentration at 7 days (New Zealand White (albino), lung, right middle lobe, inhaled, 0.05 mg/kg/day, Lung concentration of aprepitant LMPD (right middle lobe), Group 5, inhalation (aerosol, olive oil) 0.05 mg/kg per day, seven days, individual cases) of 1500 ng/g. The concentration at 7 days (New Zealand White (albino), lung, right middle lobe, inhaled, 0.05 mg/kg/day, Lung concentration of aprepitant LMPD, Average ± SD of cases, Group 5, inhalation (aerosol, olive oil) 0.05 mg/kg per day, seven days) was 1500 ng/g, the concentration at 7 days (New Zealand White (albino), lung, right middle lobe, inhaled, 0.1 mg/kg/day, Lung concentration of aprepitant LMPD (right middle lobe), Group 6, inhalation (aerosol, olive oil) 0.1 mg/kg per day, seven days, individual cases) was 2900 ng/g and the concentration at 7 days (New Zealand White (albino), lung, right middle lobe, inhaled, 0.1 mg/kg/day, Lung concentration of aprepitant LMPD, Average ± SD of cases, Group 6, inhalation (aerosol, olive oil) 0.1 mg/kg per day, seven days) was 2900 ng/g. It also gave a concentration at 7 days (New Zealand White (albino), lung, right middle lobe, inhaled, 0.2 mg/kg/day, Lung concentration of aprepitant LMPD (right middle lobe), Group 7, inhalation (aerosol, olive oil) 0.2 mg/kg per day, seven days, individual cases) of 6000 ng/g, a concentration at 7 days (New Zealand White (albino), lung, right middle lobe, inhaled, 0.2 mg/kg/day, Lung concentration of aprepitant LMPD, Average ± SD of cases, Group 7, inhalation (aerosol, olive oil) 0.2 mg/kg per day, seven days) of 6030 ng/g and a concentration at 7 days (New Zealand White (albino), lung, right middle lobe, po, 100 mg/kg/day, Lung concentration of aprepitant LMPD, Average ± SD of cases, Group 4, oral 100 mg/kg per day, seven days) of 5400 ng/g. The concentration at 7 days (New Zealand White (albino), lung, right superior lobe, inhaled, 0.05 mg/kg/day, Lung concentration of aprepitant LSPD (right superior lobe), Group 5, inhalation (aerosol, olive oil) 0.05 mg/kg per day, seven days, individual cases) was 1400 ng/g, the concentration at 7 days (New Zealand White (albino), lung, right superior lobe, inhaled, 0.05 mg/kg/day, Lung concentration of aprepitant LSPD, Average ± SD of cases, Group 5, inhalation (aerosol, olive oil) 0.05 mg/kg per day, seven days) was 1400 ng/g and the concentration at 7 days (New Zealand White (albino), lung, right superior lobe, inhaled, 0.1 mg/kg/day, Lung concentration of aprepitant LSPD (right superior lobe), Group 6, inhalation (aerosol, olive oil) 0.1 mg/kg per day, seven days, individual cases) was 2900 ng/g. For the same compound, the concentration at 7 days (New Zealand White (albino), lung, right superior lobe, inhaled, 0.1 mg/kg/day, Lung concentration of aprepitant LSPD, Average ± SD of cases, Group 6, inhalation (aerosol, olive oil) 0.1 mg/kg per day, seven days) was 2800 ng/g, the concentration at 7 days (New Zealand White (albino), lung, right superior lobe, inhaled, 0.2 mg/kg/day, Lung concentration of aprepitant LSPD (right superior lobe), Group 7, inhalation (aerosol, olive oil) 0.2 mg/kg per day, seven days, individual cases) was 6100 ng/g and the concentration at 7 days (New Zealand White (albino), lung, right superior lobe, inhaled, 0.2 mg/kg/day, Lung concentration of aprepitant LSPD, Average ± SD of cases, Group 7, inhalation (aerosol, olive oil) 0.2 mg/kg per day, seven days) was 6000 ng/g. It also gave a concentration at 7 days (New Zealand White (albino), lung, right superior lobe, po, 100 mg/kg/day, Lung concentration of aprepitant LSPD, Average ± SD of cases, Group 4, oral 100 mg/kg per day, seven days) of 4700 ng/g, a concentration at 7 days (New Zealand White, in vivo, 0.4 mg/kg/day, Lung concentration of aprepitant, Average ± SD of the five lobes per case) of 9900 ng/g and a concentration at 7 days (New Zealand White, in vivo, po, 10 mg/kg/day, Lung concentration of aprepitant, Average ± SD of the five lobes per case) of 960 ng/g. It also gave a concentration at 7 days (New Zealand White, in vivo, po, 40 mg/kg/day, Lung concentration of aprepitant, Average ± SD of the five lobes per case) of 4200 ng/g, a concentration at 7 days (New Zealand White, in vivo, po, 80 mg/kg/day, Lung concentration of aprepitant, Average ± SD of the five lobes per case) of 4400 ng/g and a concentration at 7 days (New Zealand White, lung, left inferior lobe, inhaled, 0.2 mg/kg/day, Lung concentration of aprepitant LIPI, Average ± SD of cases, Group 7, inhalation (aerosol, olive oil) 0.2 mg/kg per day, seven days) of 5900 ng/g. The concentration at 7 days (New Zealand White, lung, left inferior lobe, inhaled, 0.4 mg/kg/day, Lung concentration of aprepitant LIPI (left inferior lobe), Group 8, inhalation (aerosol, olive oil) 0.4 mg/kg per day, seven days, individual cases) was 10000 ng/g, the concentration at 7 days (New Zealand White, lung, left inferior lobe, inhaled, 0.4 mg/kg/day, Lung concentration of aprepitant LIPI, Average ± SD of cases, Group 8, inhalation (aerosol, olive oil) 0.4 mg/kg per day, seven days) was 10000 ng/g and the concentration at 7 days (New Zealand White, lung, left inferior lobe, po, 10 mg/kg/day, Lung concentration of aprepitant LIPI (left inferior lobe), Group 1, oral 10 mg/kg per day, seven days, individual cases) was 1500 ng/g. The concentration at 7 days (New Zealand White, lung, left inferior lobe, po, 10 mg/kg/day, Lung concentration of aprepitant LIPI, Average ± SD of cases, Group 1, oral 10 mg/kg per day, seven days) was 1300 ng/g, the concentration at 7 days (New Zealand White, lung, left inferior lobe, po, 40 mg/kg/day, Lung concentration of aprepitant LIPI (left inferior lobe), Group 2, oral 40 mg/kg per day, seven days, individual cases) was 5400 ng/g and the concentration at 7 days (New Zealand White, lung, left inferior lobe, po, 40 mg/kg/day, Lung concentration of aprepitant LIPI, Average ± SD of cases, Group 2, oral 40 mg/kg per day, seven days) was 4000 ng/g. The concentration at 7 days (New Zealand White, lung, left inferior lobe, po, 80 mg/kg/day, Lung concentration of aprepitant LIPI (left inferior lobe), Group 3, oral 80 mg/kg per day, seven days, individual cases) was 3600 ng/g, the concentration at 7 days (New Zealand White, lung, left inferior lobe, po, 80 mg/kg/day, Lung concentration of aprepitant LIPI, Average ± SD of cases, Group 3, oral 80 mg/kg per day, seven days) was 3700 ng/g and the concentration at 7 days (New Zealand White, lung, left superior lobe, inhaled, 0.2 mg/kg/day, Lung concentration of aprepitant LSPI, Average ± SD of cases, Group 7, inhalation (aerosol, olive oil) 0.2 mg/kg per day, seven days) was 6030 ng/g. It also gave a concentration at 7 days (New Zealand White, lung, left superior lobe, inhaled, 0.4 mg/kg/day, Lung concentration of aprepitant LSPI (left superior lobe), Group 8, inhalation (aerosol, olive oil) 0.4 mg/kg per day, seven days, individual cases) of 9900 ng/g and a concentration at 7 days (New Zealand White, lung, left superior lobe, inhaled, 0.4 mg/kg/day, Lung concentration of aprepitant LSPI, Average ± SD of cases, Group 8, inhalation (aerosol, olive oil) 0.4 mg/kg per day, seven days) of 10000 ng/g.
